Our source for the IC50 values is patent publication US10301267B2, “Compounds” (AstraZeneca AB, priority 2006, dated 2019).

Assay [1] deals with T1, His6-tagged FGFR kinase domain (Homo sapiens, UniProt P11362, C488A/C584S).
T1 construct: FGFR kinase domain (amino acids 458-765, C488A, C584S) N-terminally fused to a His6-tag and TEV cleavage site; His6-tag plus linker and TEV cleavage site (printed as X1); made in house
The assay can be described thus: FGFR Kinase assay - Elisa. The note with it: FGFR inhibition test, Elisa; read-out: Activity class (FGFR Kinase assay - Elisa). Type of assay: biochemical. As for the experimental part:
To determine inhibition of FGFR activity, kinase assays were conducted using ELISA (Enzyme-Linked Immunosorbent Assay) technology.
Kinase activity assays were performed in 384-well polypropylene plates (Matrix, Catalogue No. 4311. Matrix are part of Thermo Fisher Scientific, 22 Friars Drive, Hudson, N.H. 03051, USA) with a total volume of 40 μl in each well. Each well was coated with 2 μg of polyEAY substrate (Sigma, Catalogue No. P3899) at 4° C. overnight. The plates were then washed once with 100 μl PBS and once with 100 μl 50 mM HEPES (pH 7.4) prior to the addition of the kinase assay reagents. Reactions contained His6-tagged FGFR kinase domain (FGFR kinase domain (amino acids 458-765, C488A, C584S) N-terminally fused to a His6-tag and TEV cleavage site encoded by the following sequence; [[…]]. The final alanine denotes the start of the FGFR protein sequence. The resultant protein was expressed and purified based on Mohammadi et al, Cell Vol 86, 577-587 (1996). Each kinase reaction contained 0.1 ng His6-tagged FGFR kinase domain, 50 mM HEPES (pH 7.4), 0.1 mM Na3VO4, 0.1 mM DTT, 0.05% (v/v) Triton X100, 20 mM MgCl2, 160 μM ATP. Various concentrations of test compounds were each added in 5% (v/v) DMSO to yield a final assay DMSO concentration of 1.25% (v/v). The kinase reactions were incubated at room temperature for 45 minutes and stopped by washing the plate three times with 100 μl PBS plus 0.05% Tween. 40 μl of a one in 10000 dilution of 4G10-HRP antibody (Upstate Biotechnology, UBI 16-105. Upstate are part of Millipore Corporation, 290 Concord Road, Billerca Mass. 01821 USA) made up in 0.5% (w/v) BSA/PBS was then added to each well and the plates incubated at room temperature for one hour. Following this, the plates were then washed repeatedly with 100 μl PBS plus 0.05% Tween to remove all traces of the antibody solution. 40 μl of 50 μg/ml 3,3′,5,5′-Tetramethylbenzidine (Sigma, Catalogue No. T2885), 0.05M phosphate-citrate buffer, containing 0.03% sodium perborate was added to each well and the plates incubated at room temperature for twelve minutes. The colour reaction was stopped by the addition of 20 μl 2M H2SO4 and the plates read at 450 nm on a Spectrafluor Plus (Tecan Trading AG, Switzerland). In the assay, compounds were tested at a range of concentrations.
Percentage inhibition at 1 uM, as expressed herein, is a calculated value based on the curve fit that was generated experimentally. From the fitted curve plot, the effect of compound at a concentration of 1 uM was calculated as a percentage inhibition. The IC50 value is the concentration of test compound that inhibits 50% of FGFR kinase activity.

A further assay concerns the target FGFR1 active kinase (Homo sapiens, UniProt P11362). The assay is described as follows: FGFR Kinase assay - Caliper Echo Dosing. It counts as biochemical. The note with it: FGFR1 7.2 nM, 408 uM ATP, acoustic dosing; geometric mean of n.
The test system of assay [2] is bFGF stimulated Erk phosphorylation in NIH 3T3 cells. The assay can be described thus: Cell pErk - growth factor stimulated Erk phosphorylation. Type of assay: cell-based. The note with it: Mus musculus, NIH3T3, 3 ng/ml bFGF, read-out: Activity class (Cell pErk). The source says:
Cell Assays Cell pErk—Growth Factor Stimulated Erk Phosphorylation
These and other assays were used to evaluate the ability of a test compound to inhibit growth factor stimulated cellular signalling in mammalian cell lines. This was achieved by measuring the amount of receptor tyrosine kinase regulated Erk phosphorylation within a cell following compound treatment.
NIH 3T3 (ECACC, 93061524) cells were routinely passaged in DMEM (Gibco BRL, 41966) plus 10% foetal calf serum (FCS), 1% L-glutamine (Gibco BRL, 25030) to a confluence not greater than 80%. To undertake the assay, NIH 3T3's were seeded at 1×10^4 cells/well in DMEM plus 10% foetal calf serum, 1% L-glutamine in 96 well plates (Costar, 3904) and incubated at 37° C. (+5% CO2) in a humidified incubator. Once the cells had fully adhered (typically following 4-5 hours incubation) the media was removed from each well and the cells gently washed with 100 μl warm serum free media. 90 μl of serum free DMEM plus 1% L-glutamine was then added to each well and the plates were returned to a humidified 37° C. (+5% CO2) incubator. The following day, the plates were dosed with 10 μl compound (diluted from 10 mM stock in DMSO using serum free DMEM) and the plates were returned to a humidified 37° C. (+5% CO2) incubator for one hour. NIH 3T3 cells were then stimulated with a final concentration of 3 ng/ml bFGF (Sigma, F0291) for 20 minutes at 37° C. Following stimulation the cells were fixed by adding formaldehyde (4% v/v final concentration) and incubating at room temperature for 20 minutes. The fixative solution was then removed and the wells were washed twice with 100 μl phosphate buffered saline (PBS/A) before permeabilising the cells by the addition of 50 μl/well 0.1% triton/PBS/A for 10 minutes at room temperature. The permeabilisation solution was then removed and the cells washed twice more with 100 μl/well PBS/A before the addition of 50 μl/well anti-phospho p44/42 antibody (Cell Signalling Technology, 9106), diluted 1/500 with PBS/A plus 10% FCS. The anti-phospho p44/42 antibody recognises Erk phosphorylated at threonine 202 and tyrosine 204. Following incubation at room temperature for 2 hours, the antibody solution was removed and the wells were washed twice with 100 μl/well PBS/A. 50 μl/well 1/250 goat anti-mouse alexa fluor 488 secondary antibody (Molecular Probes, A11001) and 1/10000 Hoescht (Molecular Probes, H-3570) diluted with PBS/A plus 10% FCS was added and the plate incubated in the dark at room temperature for one hour. Finally, the plates were washed three times with 100 μl/well PBS/A, leaving the final wash in the wells before sealing the plates. The plates were read at 350 nm and 488 nm using an Arrayscan (Cellomics). […] IC50 value is the concentration of test compound that inhibits 50% of Erk phosphorylation.

The target of assay [3] is T2, transiently expressed FGFR1 IIIc in Cos-1 cells (Homo sapiens, UniProt P11362).
T2 construct: The clone was full-length, wild-type FGFR1 IIIc isoform; host or cells: Cos-1
The assay is described as follows: Cell FGFR1 - cell based inhibition of transiently expressed FGFR1 IIIc phosphorylation. The note with it: phospho-FGFR1. The source says: Cell FGFR1—Cell Based Inhibition of Transiently Expressed FGFR1 IIIc Phosphorylation (Measured Using Phospho-Specific Primary and Fluorescent Secondary Antibodies).
This assay is designed to detect inhibitors of transiently expressed FGFR1 phosphorylation by antibody staining of fixed cells detected using ArrayScan technology. (For a description of Array Scan technology see http://www.cellomics.com/content/menu/Arrayscan/)
Cos-1 cells were routinely passaged in DMEM (Gibco BRL, 41966) plus 3% foetal calf serum (FCS), 1% L-glutamine (Gibco BRL, 25030) to a confluence of 80%. To undertake the assay, Cos-1 cells were harvested at 90-95% confluence for cell transfection. […]
The harvested Cos-1 cells are counted using a coulter counter and diluted further with 1% FCS/DMEM to 2.5×10^5 cells/ml. […]
Following incubation at room temperature for 1 hour, the antibody solution was removed and the wells were washed once with 200 ul/well PBS/A. Then 40 μl 1/500 secondary antibody (A111005; goat anti-mouse 594) solution and 1/10000 Hoechst (diluted together in PBS/A with 10% FCS+0.1% Tween 20) were added and the plate incubated in the dark at room temperature for one hour. […] The plates were read on an Arrayscan (Cellomics). […]

T2 sequence (P11362 22-822): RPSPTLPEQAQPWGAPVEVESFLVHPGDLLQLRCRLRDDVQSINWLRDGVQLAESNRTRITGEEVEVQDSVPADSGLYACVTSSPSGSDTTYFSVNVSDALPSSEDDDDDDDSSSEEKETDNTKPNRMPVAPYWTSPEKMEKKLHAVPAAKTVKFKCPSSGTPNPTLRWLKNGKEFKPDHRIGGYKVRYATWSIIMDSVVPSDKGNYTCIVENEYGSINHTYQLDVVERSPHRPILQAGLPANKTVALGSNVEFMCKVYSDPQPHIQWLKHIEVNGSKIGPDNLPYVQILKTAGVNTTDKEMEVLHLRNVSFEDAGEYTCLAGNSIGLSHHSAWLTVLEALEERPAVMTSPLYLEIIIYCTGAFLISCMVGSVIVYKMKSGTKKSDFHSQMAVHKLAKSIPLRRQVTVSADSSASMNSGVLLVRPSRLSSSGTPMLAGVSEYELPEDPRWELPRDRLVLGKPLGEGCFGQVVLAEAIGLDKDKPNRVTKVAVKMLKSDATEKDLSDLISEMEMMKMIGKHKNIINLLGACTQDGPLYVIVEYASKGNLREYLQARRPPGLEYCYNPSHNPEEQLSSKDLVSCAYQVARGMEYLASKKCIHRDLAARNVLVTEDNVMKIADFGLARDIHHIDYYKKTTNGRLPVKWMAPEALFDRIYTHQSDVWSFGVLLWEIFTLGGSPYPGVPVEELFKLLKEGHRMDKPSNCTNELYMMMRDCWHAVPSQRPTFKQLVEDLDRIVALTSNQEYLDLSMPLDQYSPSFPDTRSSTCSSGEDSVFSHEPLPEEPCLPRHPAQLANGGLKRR
Chain of FGFR1 active kinase (P11362 22-822): as above
T1 sequence (P11362 458-765 C488A/C584S): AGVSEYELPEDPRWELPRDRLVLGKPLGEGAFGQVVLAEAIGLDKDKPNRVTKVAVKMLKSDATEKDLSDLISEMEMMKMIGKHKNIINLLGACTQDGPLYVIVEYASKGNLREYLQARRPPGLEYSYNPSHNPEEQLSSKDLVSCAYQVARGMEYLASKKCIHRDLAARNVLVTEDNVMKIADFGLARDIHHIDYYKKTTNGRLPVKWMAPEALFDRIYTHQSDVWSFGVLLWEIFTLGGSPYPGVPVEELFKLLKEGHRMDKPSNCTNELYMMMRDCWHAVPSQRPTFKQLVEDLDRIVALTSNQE

For `COc1cc(CCc2cc(NC(=O)c3ccc(N4CCN(C)CC4)cc3)[nH]n2)cc(OC)c1` [Example 10, N-[5-[2-(3,5-dimethoxyphenyl)ethyl]-2H-pyrazol-3-yl]-4-(4-methylpiperazin-1-yl)benzamide], the results for the IC50 (in assay [1]; against FGFR1 active kinase; in assay [2]) were under 300 nM, 0.85 nM and under 300 nM, respectively.

For `COc1cc(CCc2cc(NC(=O)c3ccc(OCCN4CCC(F)(F)CC4)cc3)n[nH]2)cc(OC)c1` [Example 55, 4-[2-(4,4-Difluoro-1-piperidyl)ethoxy]-N-[5-[2-(3,5-dimethoxyphenyl)ethyl]-1H-pyrazol-3-yl]benzamide], the IC50 in assay [3] turned out to be 460 nM.

Consider `COc1cc(CCc2cc(NC(=O)c3ccc(CC(C)N)cc3)n[nH]2)cc(OC)c1` (centres unmarked) [Example 49, 4-(2-Aminopropyl)-N-[5-[2-(3,5-dimethoxyphenyl)ethyl]-1H-pyrazol-3-yl]benzamide], for which the IC50 in assay [3] is 1470 nM.
